Reference: patent US10202421B2, “Tumor-targeting compounds” (SKU Asset Management GmbH, priority 2009, dated 2019)
Each block holds one molecule with its values, some of them ahead of it. No end group written: not given here. *: point of attachment. For = O=C*

How the values were obtained:
[1] = test system: granulocytes; assay: Chemotaxis assay (trans-well assay for macrophage mobilization); type: cell-based
Text: Concentration-dependent granulocyte activation of N-formyl peptide conjugates has been compared with activation of the peptide only. Each series of experiments has been repeated 3 times with 200,000 granulocytes each. […] Therefore, variations in the formyl peptide amino acid composition, e.g. different amino acid residues at position 3 (phenylalanine, proline) as in structure 1 and structure 2, provide a further means to tune the immune response.

[2] = Solubility at pH 7; type: physicochemical
Text: (§1) The peptide SEQ ID NO 1, […] showing specific binding activity to the tumor marker Erb-B1/EGFR was chosen as binder and the macrophage-activating peptide formyl-MLP as effector to synthesize structure 1. The structure was synthesized chemically by standard methods known in the art and purified by ion exchange chromatography. Chemical identity was verified by mass spectrometry.

[3] = Size exclusion chromatography and dynamic light scattering analysis; type: physicochemical; settings: size exclusion chromatography, dynamic light scattering
Text: as §1

[4] = target: T1, human EGFR/Erb-B1 (Homo sapiens, UniProt P00533); assay: Fluorescence spectroscopy binding/displacement test with NBD-labelled 12mer tracer and EGFR
T1 construct: purchased

displacement of fluorescent tracer peptide from EGFR complex ([4]; 1 µM EGFR/NBD-12mer complex titrated with increasing concentrations (FIG. 5d)): displacement of the fluorescent tracer
KD value for the interaction with EGFR ([4]; displacement of fluorescently labelled 12mer from EGFR complex, estimated): low nM range
Molecule: CC[C@H](C)[C@H](NC(=O)[C@@H](NC(=O)[C@H](CC(N)=O)NC(=O)[C@H](CCC(N)=O)NC(=O)[C@@H]1CCCN1C(=O)[C@@H](NC(=O)[C@H](Cc1ccc(O)cc1)NC(=O)CNC(=O)[C@H](Cc1ccc(O)cc1)NC(=O)[C@H](Cc1c[nH]c2ccccc12)NC(=O)[C@H](Cc1c[nH]cn1)NC(=O)[C@@H](N)Cc1ccc(O)cc1)[C@@H](C)O)C(C)C)C(=O)NCCOCCOCCOCCOCCOCCOCCOCCOCCOCCOCCOCCOCCOCCOCCOCCOCCOCCOCCOCCOCCOCCOCCOCCOCCOCCOCCOCCOCCC(=O)NCCCC[C@H](NC(=O)[C@H](CCCCNC(=O)CCOCCOCCOCCOCCOCCOCCOCCOCCOCCOCCOCCOCCOCCOCCOCCOCCOCCOCCOCCOCCOCCOCCOCCOCCOCCOCCOCCOCCNC(=O)[C@@H](NC(=O)[C@@H](NC(=O)[C@H](CC(N)=O)NC(=O)[C@H](CCC(N)=O)NC(=O)[C@@H]1CCCN1C(=O)[C@@H](NC(=O)[C@H](Cc1ccc(O)cc1)NC(=O)CNC(=O)[C@H](Cc1ccc(O)cc1)NC(=O)[C@H](Cc1c[nH]c2ccccc12)NC(=O)[C@H](Cc1c[nH]cn1)NC(=O)[C@@H](N)Cc1ccc(O)cc1)[C@@H](C)O)C(C)C)[C@@H](C)CC)NC(=O)[C@@H]1CCCN1C(=O)[C@H](CC(C)C)NC(=O)[C@H](CCSC)NC=O)C(=O)O [structure 1]
macrophage activation profile ([1]; trans-well assay): demonstrated
solubility [2]: ≤ 10000 µg/mL
oligomers or large aggregates [3]: no oligomers or large aggregates

Molecule: N-formyl-Met-Leu-Phe (For-Met-Leu-Phe) [fMLF]
stimulation of granulocyte chemotaxis ([1]; separate experiment): can be stimulated
chemotactic response compared to fMLP ([1]; separate experiment, granulocytes): slightly higher

Molecule: N-formyl-Met-Leu-Pro (For-Met-Leu-Pro) [fMLP]
stimulation of granulocyte chemotaxis ([1]; separate experiment): can be stimulated

displacement of fluorescent tracer peptide from EGFR complex (fluorescence intensity) ([4]; EGFR-tracer complex 50 nM, PBS pH 7.5, 10 fold excess of unlabelled peptide (FIG. 5c)): decrease in fluorescence intensity
Molecule: YHWYGYTPQNVI [unlabelled peptide, reference compound]
